Patent US10857110B2, “Antibacterial compounds” (CONSEJO NACIONAL DE INVESTIGACIONES CIENTÍFICAS Y TÉCNICAS …, priority 2016, dated 2020)
Converted amounts (≈) assume the structure as drawn.

How the values were obtained:
[1] = test system: Burkholderia seminalis (CBC 040); settings: reference (1); cited from earlier work
B. contaminans (HNBC001) = experiment: MIC/MBC antibiotic sensitivity (CLSI); format: cell-based; settings: Ceftazimide, CLSI criteria
Experimental: (§1) The new compounds of the invention were synthesized following the general method of preparation (Tetrahedron, 2001, 57, 1671-1675), from the reaction between an intermediary compound of the acyl thiourea and HgCl2 in presence of trimethylamine. The products were adequately characterized regarding its chemistry. The antibacterial activity of the new compounds was assayed against two Gram-positive reference strains: Staphylococcus aureus (ATCC6538) and Bacillus cereus (ATCC10876), a fermenting Gram-negative strain: Escherichia coli (ATCC25922), and 26 non-fermenting Gram-negative isolates, including 3 reference strains: Pseudomonas aeruginosa (PAO1), Bordetella bronchiseptica (9.73H+), and Inquilinus limosus (DSM16000), and 23 isolates recovered from patients suffering from cystic fibrosis, including one Achromobacter xylosoxidans isolate, and 22 isolates belonging to the Burkholderia cepacia complex. The later were selected because they presented resistance to a high number of antimicrobial compounds, among a panel of 125 clinical isolates previously analyzed for its resistance against 17 antimicrobial compounds (1,2). The antibiotic sensitivity studies were performed by applying two quantitative methods which allow to determine the minimum inhibitory concentration (MIC) and the minimum bactericidal concentration (MBC).
(§2) The compounds obtained in Examples 1 and 2 were assayed against 23 isolates recovered from the sputum of patients suffering from cystic fibrosis being treated at the Sor Maria Ludovica Children Hospital (La Plata, Buenos Aires, Argentina). Nineteen of these isolates were selected for being highly resistant to most of the antimicrobial agents of clinical use from a panel of 125 isolates previously characterized in Martina et al. (1). Reference strains were also included: Gram (+) bacteria: B. cereus and S. aureus, fermenting Gram (−) bacteria: E. coli, and non-fermenting Gram (−) bacteria: Inquilinus limosus (DSM16000), B. bronchiseptica, and Pseudomonas aeruginosa (PAO1). The antibiotic sensitivity studies were performed applying two quantitative methods which allow to determine the minimum inhibitory concentration (MIC) and the minimum bactericidal concentration (MBC) according to the criteria established by the Clinical and Laboratory Standards Institute (CLSI) (4). For comparative purposes, three antibiotics commonly used in the treatment of pulmonary infections in cystic fibrosis patients were included in the study: tobramycin, ceftazidime and meropenem.

[2] = test system: Bacillus cereus (ATCC10876); experiment: MIC/MBC antibiotic sensitivity (CLSI); format: cell-based
Experimental: as §1, §2

[3] = test system: Bordetella bronchiseptica (9.73H+); experiment: MIC/MBC antibiotic sensitivity (CLSI); format: cell-based; settings: B. bronchiseptica (9.73H+)
Experimental: as §1, §2

[4] = test system: Burkholderia cenocepacia (CBC 023); experiment: MIC/MBC antibiotic sensitivity (CLSI); format: cell-based; settings: Ceftazimide, CLSI criteria; B. cenocepacia (CBC 023)
Experimental: as §1, §2

[5] = test system: Burkholderia cenocepacia (CBC 024); experiment: MIC/MBC antibiotic sensitivity (CLSI); format: cell-based
Experimental: as §1, §2

[6] = test system: Burkholderia cenocepacia (CBC 029); experiment: MIC/MBC antibiotic sensitivity (CLSI); format: cell-based
Experimental: as §1, §2

[7] = test system: Burkholderia cenocepacia (CBC 031); experiment: MIC/MBC antibiotic sensitivity (CLSI); format: cell-based
Experimental: as §1, §2

[8] = test system: Burkholderia cenocepacia (CBC 032); experiment: MIC/MBC antibiotic sensitivity (CLSI); format: cell-based
Experimental: as §1, §2

[9] = test system: Burkholderia cenocepacia (CBC 033); experiment: MIC/MBC antibiotic sensitivity (CLSI); format: cell-based
Experimental: as §1, §2

[10] = test system: Burkholderia cenocepacia (CBC 035); experiment: MIC/MBC antibiotic sensitivity (CLSI); format: cell-based
Experimental: as §1, §2

[11] = test system: Burkholderia cenocepacia (CBC 036); experiment: MIC/MBC antibiotic sensitivity (CLSI); format: cell-based
Experimental: as §1, §2

[12] = test system: Burkholderia cenocepacia (HE001); experiment: MIC/MBC antibiotic sensitivity (CLSI); format: cell-based; settings: Ceftazimide, CLSI criteria; B. cenocepacia (HE001)
Experimental: as §1, §2

[13] = test system: Burkholderia cepacia (CBC 010); experiment: MIC/MBC antibiotic sensitivity (CLSI); format: cell-based; settings: Ceftazimide, CLSI criteria; B. cepacia (CBC 010)
Experimental: as §1, §2

[14] = test system: Burkholderia cepacia (CBC 011); experiment: MIC/MBC antibiotic sensitivity (CLSI); format: cell-based; settings: Ceftazimide, CLSI criteria; B. cepacia (CBC 011)
Experimental: as §1, §2

[15] = test system: Burkholderia multivorans (CBC 015); experiment: MIC/MBC antibiotic sensitivity (CLSI); format: cell-based
Experimental: as §1, §2

[16] = test system: Burkholderia multivorans (CBC 016); experiment: MIC/MBC antibiotic sensitivity (CLSI); format: cell-based
Experimental: as §1, §2

[17] = test system: Burkholderia multivorans (CBC 018); experiment: MIC/MBC antibiotic sensitivity (CLSI); format: cell-based
Experimental: as §1, §2

[18] = test system: Burkholderia multivorans (CBC 019); experiment: MIC/MBC antibiotic sensitivity (CLSI); format: cell-based; settings: Ceftazimide, CLSI criteria; B. multivorans (CBC 019)
Experimental: as §1, §2

[19] = test system: Burkholderia multivorans (CBC 020); experiment: MIC/MBC antibiotic sensitivity (CLSI); format: cell-based; settings: Ceftazimide, CLSI criteria; B. multivorans (CBC 020)
Experimental: as §1, §2

[20] = test system: Burkholderia multivorans (CBC 021); experiment: MIC/MBC antibiotic sensitivity (CLSI); format: cell-based; settings: Ceftazimide, CLSI criteria; B. multivorans (CBC 021)
Experimental: as §1, §2

[21] = test system: Burkholderia multivorans (CBC 022); experiment: MIC/MBC antibiotic sensitivity (CLSI); format: cell-based; settings: Ceftazimide, CLSI criteria; B. multivorans (CBC 022)
Experimental: as §1, §2

[22] = test system: Burkholderia seminalis (CBC 040); experiment: MIC/MBC antibiotic sensitivity (CLSI); format: cell-based; settings: Ceftazimide, CLSI criteria; B. seminalis (CBC 040)
Experimental: as §1, §2

[23] = test system: Burkholderia seminalis (CBC 042); experiment: MIC/MBC antibiotic sensitivity (CLSI); format: cell-based; settings: Ceftazimide, CLSI criteria; B. seminalis (CBC 042)
Experimental: as §1, §2

[24] = test system: Escherichia coli (ATCC25922); experiment: MIC/MBC antibiotic sensitivity (CLSI); format: cell-based; settings: E. coli (ATCC25922)
Experimental: as §1, §2

[25] = test system: Inquilinus limosus (DSM16000); experiment: MIC/MBC antibiotic sensitivity (CLSI); format: cell-based; settings: Ceftazimide, CLSI criteria
Experimental: as §1, §2

[26] = test system: Pseudomonas aeruginosa (PAO1); experiment: MIC/MBC antibiotic sensitivity (CLSI); format: cell-based; settings: P. aeruginosa (PAO1)
Experimental: as §1, §2

[27] = test system: Staphylococcus aureus (ATCC6538); experiment: MIC/MBC antibiotic sensitivity (CLSI); format: cell-based; settings: S. aureus (ATCC6538)
Experimental: as §1, §2

B. cenacepacia (FQC2524) = experiment: MIC/MBC antibiotic sensitivity (CLSI); format: cell-based, B. cenocepacia; settings: Ceftazimide, CLSI criteria
Experimental: as §1, §2

[28] = test system: Achromobacter xylosaxidans (HNA001); experiment: MIC/MBC antibiotic sensitivity (CLSI); format: cell-based, Achromobacter xylosoxidans; settings: Ceftazimide, CLSI criteria; A. xylosaxidans (HNA001)
Experimental: as §1, §2

CO/N=C(\C(=O)N[C@@H]1C(=O)N2C(C(=O)[O-])=C(C[N+]3(C)CCCC3)CS[C@H]12)c1csc(N)n1 [cefepime]
resistance of the strain to commercial antibiotics [1]: resistant

CO/N=C(\C(=O)N[C@@H]1C(=O)N2C(C(=O)O)=C(COC(C)=O)CS[C@H]12)c1csc(N)n1 [cefotaxim]
resistance of the strain to commercial antibiotics [1]: resistant

CC(=O)OCC1=C(C(=O)O)N2C(=O)[C@@H](NC(=O)Cc3cccs3)[C@H]2SC1 [cefalotin]
resistance of the strain to commercial antibiotics [1]: resistant

gentamicin
resistance of the strain to commercial antibiotics [1]: resistant

CCn1cc(C(=O)O)c(=O)c2ccc(C)nc21 [nalidixic acid]
resistance of the strain to commercial antibiotics [1]: resistant

colistin
resistance of the strain to commercial antibiotics [1]: resistant

CC(C)(O/N=C(\C(=O)N[C@@H]1C(=O)N2C(C(=O)[O-])=C(C[n+]3ccccc3)CS[C@H]12)c1csc(N)n1)C(=O)O [Ceftazimide, ceftazidime]
MIC (R/I/S category) (B. contaminans (HNBC001)): S (<8 μg/ml S) | MBC [2]: 0.97 µg/mL (≈ 1.77 µM) | MIC [2]: 0.97 µg/mL (≈ 1.77 µM) | MBC [3]: 62.5 µg/mL (≈ 114 µM) | MIC [3]: 7.81 µg/mL (≈ 14.3 µM) | MIC (R/I/S category) [4]: R (>32 μg/ml R) | MBC ([5]; Burkholderia cenocepacia (CBC 024)): 7.81 µg/mL (≈ 14.3 µM) | MIC (R/I/S category) ([5]; Ceftazimide, CLSI criteria, B. cenocepacia (CBC 024)): S (<8 μg/ml S) | MBC ([6]; Burkholderia cenocepacia (CBC 029)): 15.62 µg/mL (≈ 28.6 µM) | MIC (R/I/S category) ([6]; Ceftazimide, CLSI criteria, B. cenocepacia (CBC 029)): S (<8 μg/ml S) | MBC ([7]; Burkholderia cenocepacia (CBC 031)): 7.81 µg/mL (≈ 14.3 µM) | MIC (R/I/S category) ([7]; Ceftazimide, CLSI criteria, B. cenocepacia (CBC 031)): S (<8 μg/ml S) | MBC ([8]; Burkholderia cenocepacia (CBC 032)): 7.81 µg/mL (≈ 14.3 µM) | MIC (R/I/S category) ([8]; Ceftazimide, CLSI criteria, B. cenocepacia (CBC 032)): S (<8 μg/ml S) | MBC ([9]; Burkholderia cenocepacia (CBC 033)): 31.25 µg/mL (≈ 57.2 µM) | MIC (R/I/S category) ([9]; Ceftazimide, CLSI criteria, B. cenocepacia (CBC 033)): S (<8 μg/ml S) | MBC ([10]; Burkholderia cenocepacia (CBC 035)): 15.62 µg/mL (≈ 28.6 µM) | MIC (R/I/S category) ([10]; Ceftazimide, CLSI criteria, B. cenocepacia (CBC 035)): S (<8 μg/ml S) | MBC ([11]; Burkholderia cenocepacia (CBC 036)): 15.62 µg/mL (≈ 28.6 µM) | MIC (R/I/S category) ([11]; Ceftazimide, CLSI criteria, B. cenocepacia (CBC 036)): S (<8 μg/ml S) | MIC (R/I/S category) [12]: R (>32 μg/ml R) | MIC (R/I/S category) [13]: R (>32 μg/ml R) | MIC (R/I/S category) [14]: R (>32 μg/ml R) | MBC ([15]; Burkholderia multivorans (CBC 015)): 7.81 µg/mL (≈ 14.3 µM) | MIC (R/I/S category) ([15]; Ceftazimide, CLSI criteria, B. multivorans (CBC 015)): S (<8 μg/ml S) | MBC ([16]; Burkholderia multivorans (CBC 016)): 3.9 µg/mL (≈ 7.14 µM) | MIC (R/I/S category) ([16]; Ceftazimide, CLSI criteria, B. multivorans (CBC 016)): S (<8 μg/ml S) | MBC ([17]; Burkholderia multivorans (CBC 018)): 7.81 µg/mL (≈ 14.3 µM) | MIC (R/I/S category) ([17]; Ceftazimide, CLSI criteria, B. multivorans (CBC 018)): S (<8 μg/ml S) | MIC (R/I/S category) [18]: R (>32 μg/ml R) | MIC (R/I/S category) [19]: R (>32 μg/ml R) | MIC (R/I/S category) [20]: R (>32 μg/ml R) | MIC (R/I/S category) [21]: R (>32 μg/ml R) | MIC (R/I/S category) [22]: R (>32 μg/ml R) | MIC (R/I/S category) [23]: R (>32 μg/ml R) | MBC [24]: 0.97 µg/mL (≈ 1.77 µM) | MIC [24]: 0.97 µg/mL (≈ 1.77 µM) | MIC (R/I/S category) [25]: R (>32 μg/ml R) | MBC [26]: 1.95 µg/mL (≈ 3.57 µM) | MIC [26]: 1.95 µg/mL (≈ 3.57 µM) | MBC [27]: 7.81 µg/mL (≈ 14.3 µM) | MIC [27]: 7.81 µg/mL (≈ 14.3 µM) | MIC (R/I/S category) (B. cenacepacia (FQC2524)): S (<8 μg/ml S) | MIC (R/I/S category) [28]: S (<8 μg/ml S) | resistance of the strain to commercial antibiotics [1]: resistant

NCC[C@H](O)C(=O)N[C@@H]1C[C@H](N)[C@@H](O[C@H]2O[C@H](CN)[C@@H](O)[C@H](O)[C@H]2O)[C@H](O)[C@H]1O[C@H]1O[C@H](CO)[C@@H](O)[C@H](N)[C@H]1O [amikacin]
resistance of the strain to commercial antibiotics [1]: resistant

CC1(C)S[C@@H]2[C@H](NC(=O)[C@H](N)c3ccccc3)C(=O)N2[C@H]1C(=O)O [ampicillin]
resistance of the strain to commercial antibiotics [1]: resistant

CO[C@@]1(NC(=O)Cc2cccs2)C(=O)N2C(C(=O)O)=C(COC(N)=O)CS[C@@H]21 [cefoxitin]
resistance of the strain to commercial antibiotics [1]: resistant

O=C(O)c1cn(C2CC2)c2cc(N3CCNCC3)c(F)cc2c1=O [ciprofloxacin]
resistance of the strain to commercial antibiotics [1]: resistant
